This note sets out measurements from US10053472B2, “Silicon-based fungicides and process for producing the same” (COUNCIL OF SCIENTIFIC & INDUSTRIAL RESEARCH, priority 2014, dated 2018).

Converted amounts (≈) assume the structure as drawn.

The subject of experiment [1] is C. albicans ATCC 24433. Description: Spectrophotometric sterol analysis (effect on sterol composition). It is filed as cell-based, Candida albicans. Particulars: 0, 0.125, 0.25, 0.50, 1 and 2 μg/ml of compound, 16 h, 28° C.; heptane sterol extract scanned 220-300 nm (FIG. 1). As for the experimental part:
FIG. 1: Spectrophotometric sterol analysis of Candida albicans ATCC 24433 exposed with different concentrations of compounds of the present invention and reference compounds.
Overnight grown culture of C. albicans ATCC 24433 was inoculated (10^6 cells/ml) in 50 ml 1% YPG broth containing 0, 0.125, 0.25, 0.50, 1, and 2 μg/ml of compounds. The flasks were incubated for 16 h with shaking at 28° C. The stationary-phase cells were harvested by centrifugation at 8000 rpm for 10 min and washed once with sterile distilled water. The net wet weight of the cell pellet was determined. To the 100 mg cell pellet, 3 ml of 25% alcoholic potassium hydroxide solution (25 g of KOH and 35 ml of sterile distilled water, brought to 100 ml with 100% ethanol), was added to each pellet and vortex mixed for 1 min. Cell suspensions were transferred to sterile borosilicate glass screw-cap tubes and were incubated in an 85° C. water bath for 1 h. Following incubation, tubes were allowed to cool to room temperature. Sterols were then extracted by addition of a mixture of 1 ml of sterile distilled water and 3 ml of n-heptane followed by vigorous vortex mixing for 3 min. The heptane layer was transferred to a clean borosilicate glass screw-cap tube and stored at −20° C. for as long as 24 h. Prior to analysis, a 20 μl aliquot of sterol extract was diluted fivefold in 100% ethanol and scanned spectrophotometrically between 220 and 300 nm on Spectrophotometer.

Experiment [2] deals with Cryptococcus neoformans ATCC 34554. Kind of experiment: Antifungal susceptibility (MIC), human fungal pathogens. Particulars: ATCC34554, MIC = concentration exhibiting >90% inhibition of growth vs control, read-out: Minimum Inhibitory Concentration, C.neoformans ATCC 34554. It is filed as cell-based. As for the experimental part:
(§1) In vitro antifungal assays were performed by broth microdilution method according to the Clinical and Laboratory Standards Institute (CLSI, formerly NCCL) methods M27-A3 and M-38-A2. The activity was checked against plant pathogenic fungi Fusarium oxysporum CMI 113138, Aspergillus flavus ATCC 11499, Claviceps purpurea CMI 44613, Alternaria solani ATCC 11785, Ustilago maydis PRL 1549 and yeast Dekkera bruxellensis ATCC 36234. Briefly each compound stock was prepared in DMSO at concentration of 12800 μg/ml. For assay compound stocks were serially diluted two fold in microtiter plate and 4 μl of this was used for assay to get a final concentration in the range of 256-2 μg/ml. Spores of the filamentous fungi (˜2×10^4 spores/ml) and yeast cells freshly grown in YPG broth in logarithmic phase (˜2×10^3 cfu/ml) were suspended in the RPMI 1640 medium and 196 μl from these were inoculated in the wells of the plate. The microtitre plate was incubated for 48-72 h. Growth was checked by visual observation and measuring absorbance at 600 nm using microtitre plate reader.
(§2) Antifungal activity of the compounds was also checked against human pathogens Candida albicans ATCC 24433, C. albicans ATCC 10231, Candida glabrata NCYC 388, Candida tropicalis ATCC 750, Cryptococcus neoformans ATCC 34554, Aspergillus niger ATCC 10578, by following procedure described below.

Experiment [3] concerns Candida glabrata NCYC 388. Described as above. In kind it is cell-based. Particulars: Nakaseomyces glabratus, NCYC388; MIC = concentration exhibiting >90% inhibition of growth vs control; read-out: Minimum Inhibitory Concentration, C.glabrata NCYC 388. On the procedure:
as §1, §2

Experiment [4] deals with C. albicans ATCC 10231. The description is as above. In kind it is cell-based. Particulars: Candida albicans, ATCC10231; MIC = concentration exhibiting >90% inhibition of growth vs control; read-out: Minimum Inhibitory Concentration, C.albicans ATCC 10231. On the procedure:
as §1, §2

Experiment [5] has as its system Aspergillus niger ATCC 10578. Described as above. As to conditions: ATCC10578, MIC = concentration exhibiting >90% inhibition of growth vs control, read-out: Minimum Inhibitory Concentration, A. niger ATCC 10578. In kind it is cell-based. On the procedure:
as §1, §2

Experiment [6] relates to Candida tropicalis ATCC 750. Described as above. In kind it is cell-based. As to conditions: ATCC750, MIC = concentration exhibiting >90% inhibition of growth vs control, read-out: Minimum Inhibitory Concentration, C.tropicalis ATCC 750. On the procedure:
as §1, §2

For experiment [7], the system named is Candida albicans ATCC 24433. The description is as above. In kind it is cell-based. As to conditions: ATCC24433, MIC = concentration exhibiting >90% inhibition of growth vs control, read-out: Minimum Inhibitory Concentration, C.albicans ATCC 24433. As for the experimental part:
as §1, §2

The subject of experiment [8] is Dekkera bruxellensis ATCC 36234. Description: Broth microdilution antifungal susceptibility (MIC), yeast. It is filed as cell-based. As to conditions: Brettanomyces bruxellensis, ATCC36234; MIC = concentration exhibiting >90% inhibition of growth vs control; RPMI 1640, 48-72 h; read-out: Minimum Inhibitory Concentration, Dekkera bruxellensis ATCC 36234. As for the experimental part: as §1

The subject of experiment [9] is Aspergillus flavus ATCC 11499. Description: Broth microdilution antifungal susceptibility (MIC), plant pathogenic fungi. In kind it is cell-based. As to conditions: ATCC11499, MIC = concentration exhibiting >90% inhibition of growth vs control, RPMI 1640, 48-72 h, read-out: Minimum Inhibitory Concentration, Aspergillus flavus ATCC 11499. On the procedure: as §1
For experiment [10], the system named is Claviceps purpurea CMI 44613. Described as above. In kind it is cell-based. As to conditions: CMI44613, MIC = concentration exhibiting >90% inhibition of growth vs control, RPMI 1640, 48-72 h, read-out: Minimum Inhibitory Concentration, Claviceps purpurea CMI 44613. On the procedure:
as §1

Experiment [11] concerns Ustilago maydis PRL 1549. The description is as above. In kind it is cell-based. Particulars: Mycosarcoma maydis, PRL1549; MIC = concentration exhibiting >90% inhibition of growth vs control; RPMI 1640, 48-72 h; read-out: Minimum Inhibitory Concentration, Ustilago maydis PRL 1549. As for the experimental part:
as §1

Experiment [12] deals with Fusarium oxysporum CMI 113138. The experiment is described as above. In kind it is cell-based. As to conditions: CMI113138, MIC = concentration exhibiting >90% inhibition of growth vs control, RPMI 1640, 48-72 h, read-out: Minimum Inhibitory Concentration, Fusarium oxysporum CMI 113138. On the procedure: as §1
For experiment [13], the system named is Alternaria solani ATCC 11785. The description is as above. In kind it is cell-based. Particulars: ATCC11785, MIC = concentration exhibiting >90% inhibition of growth vs control, RPMI 1640, 48-72 h, read-out: Minimum Inhibitory Concentration, Alternaria solani ATCC 11785. As for the experimental part:
as §1

Experiment [14] relates to tested plant and human pathogens. Description: Overall antifungal activity, summary of susceptibility testing. It is filed as cell-based. Particulars: summary statement on Tables 1 and 2. On the procedure: as §1, §2

With `CC(Cc1ccc(C(C)(C)C)cc1)CN1CC[Si](C)(C)CC1` (racemic) [NDS100414, (R,S)1-(3-(4-(tert-butyl)phenyl)-2-methylpropyl)-4,4-dimethyl-1,4-azasilinane], the “Height of sterol absorbance peaks (ergosterol concentration)” value (from here on “Height of sterol absorbance peaks”) in experiment [1] was “dose-dependent decrease in the height of the absorbance peaks”. Also, the MIC in experiment [2] turned out to be 2 µg/mL (≈ 6.3 µM); in experiment [3], 4 µg/mL (≈ 12.6 µM); in [4] it was 0.5 µg/mL (≈ 1.57 µM); in [5], 0.5 µg/mL (≈ 1.57 µM); in [6], 64 µg/mL (≈ 202 µM); in experiment [7], 4 µg/mL (≈ 12.6 µM). The MIC was 16 µg/mL (≈ 50.4 µM) in experiment [8]; 128 µg/mL (≈ 403 µM) in experiment [9]; 4 µg/mL (≈ 12.6 µM) in experiment [10]; 32 µg/mL (≈ 101 µM) in experiment [11]; 64 µg/mL (≈ 202 µM) in experiment [12]; 32 µg/mL (≈ 101 µM) in experiment [13]. The “Antifungal activity against the tested plant and human pathogens (in words)” value (“Antifungal activity” below) in experiment [14] is “potent antifungal activity”.

`CC(Cc1ccc(C(C)(C)C)cc1)CN1CCCCC1` (centres unmarked) [Fenpropidin, reference compound]: the “Height of sterol absorbance peaks” value in experiment [1] is given as “dose-dependent decrease in the height of the absorbance peaks”. Besides, the MIC in experiment [2] is 0.5 µg/mL (≈ 1.83 µM); in [3], 0.25 µg/mL (≈ 0.914 µM); in [4], 1 µg/mL (≈ 3.66 µM); in [5] it was 0.5 µg/mL (≈ 1.83 µM); in [6], 8 µg/mL (≈ 29.3 µM); in experiment [7], 0.5 µg/mL (≈ 1.83 µM). The MIC was 128 µg/mL (≈ 468 µM) in experiment [8]; 256 µg/mL (≈ 936 µM) in [9]; 32 µg/mL (≈ 117 µM) in [10]; 128 µg/mL (≈ 468 µM) in experiment [11]; 256 µg/mL (≈ 936 µM) in [12]; 128 µg/mL (≈ 468 µM) in experiment [13]. In addition, the “Antifungal activity” value in experiment [14] was “potent antifungal activity”.

For the compound `CC(Cc1ccc(C(C)(C)C)cc1)CN1C[C@@H](C)O[C@@H](C)C1` (some centres unmarked) [Fenpropimorph, reference compound], in experiment [1], the “Height of sterol absorbance peaks” value is on record as “dose-dependent decrease in the height of the absorbance peaks”. Moreover, the MIC in experiment [2] was 0.125 µg/mL (≈ 0.412 µM); in [3], 0.125 µg/mL (≈ 0.412 µM); in experiment [4], 0.25 µg/mL (≈ 0.824 µM); in experiment [5] it was 1 µg/mL (≈ 3.3 µM); in [6], 4 µg/mL (≈ 13.2 µM); in [7], 0.125 µg/mL (≈ 0.412 µM). Further, the MIC in experiment [9] was over 256 µg/mL; in experiment [10] it was 32 µg/mL (≈ 105 µM); in [11], over 256 µg/mL; in [12], over 256 µg/mL; in experiment [13], over 256 µg/mL. The “Antifungal activity” value in [14] was “potent antifungal activity”.

In the case of `CC(Cc1ccc(C(C)(C)C)cc1)C(=O)N1CC[Si](C)(C)CC1` (centres unmarked) [NDS100415], the MIC in experiment [2], in experiment [3], in experiment [4], in experiment [5], in [6] and in [7] was over 256 µg/mL each time. The MIC in [8], in [9], in [10], in experiment [11], in experiment [12] and in [13] was over 256 µg/mL each time.

Regarding `CCC(C)(C)c1ccc(CC(C)CN2CC[Si](C)(C)CC2)cc1` (centres unmarked) [NDS100444], the “Height of sterol absorbance peaks” value in [1] is “dose-dependent decrease in the height of the absorbance peaks”. The MIC in experiment [2] was 2 µg/mL (≈ 6.03 µM); in experiment [3] it was 8 µg/mL (≈ 24.1 µM); in experiment [4], 0.5 µg/mL (≈ 1.51 µM); in [5], 0.5 µg/mL (≈ 1.51 µM); in experiment [6] it was 64 µg/mL (≈ 193 µM); in [7], 4 µg/mL (≈ 12.1 µM). Further, the MIC in [8] is 4 µg/mL (≈ 12.1 µM); in experiment [9], 64 µg/mL (≈ 193 µM); in experiment [10], 16 µg/mL (≈ 48.2 µM); in [11], under 2 µg/mL; in [12], 64 µg/mL (≈ 193 µM); in [13], 32 µg/mL (≈ 96.5 µM). The “Antifungal activity” value in experiment [14] is on record as “potent antifungal activity”.

Take `CC(Cc1ccc([Si](C)(C)C)cc1)CN1CC[Si](C)(C)CC1` (centres unmarked) [NDS100579, 4,4-dimethyl-1-(2-methyl-3-(4-(trimethylsilyl)phenyl)propyl)-1,4-azasilinane]: the MIC amounted to 2 µg/mL (≈ 5.99 µM) in experiment [2]; 2 µg/mL (≈ 5.99 µM) in experiment [3]; 1 µg/mL (≈ 3 µM) in experiment [4]; 0.5 µg/mL (≈ 1.5 µM) in experiment [5]; 64 µg/mL (≈ 192 µM) in [6]; 2 µg/mL (≈ 5.99 µM) in experiment [7]. Besides, the MIC in [9] is over 256 µg/mL; in experiment [10] it was 64 µg/mL (≈ 192 µM); in experiment [11], over 256 µg/mL; in experiment [12], over 256 µg/mL; in experiment [13], over 256 µg/mL.

On to `CC(Cc1ccc(C(C)(C)C)cc1)C(=O)NC[Si](C)(C)c1ccccc1` (centres unmarked) [NDS100582], for which the MIC in experiment [2], in experiment [3], in [4], in experiment [5], in experiment [6] and in [7] was over 256 µg/mL in each case. For the same compound, the MIC in experiment [9], in experiment [10], in experiment [11], in experiment [12] and in [13] was over 256 µg/mL throughout.
